These results are taken from patent US20170334899A1, “AMINO-SUBSTITUTED ISOTHIAZOLES” (Bayer Pharma Aktiengesellschaft, priority 2014, published 2017).

The target of one assay is T1, CDK2/CycE (Homo sapiens, UniProt P24941).
T1 construct: GST; purchased ProQinase GmbH (Freiburg, Germany); host or cells: insect cells (Sf9)
Description: CDK2/CycE kinase assay (TR-FRET). It is filed as biochemical. The conditions noted are these: avg, read-out: CDK2 avg (IC50 [mol/l]). The gist of the method: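 GST-tagged human CDK2 and CycE from Sf9 cells, preincubated 15 min with compound, then 25 min at 22° C. with 10 μM ATP and 0.75 μM biotinylated Rb-derived peptide (final). Phospho-substrate read by TR-FRET (anti-pRB pSer807/pSer811, Eu anti-mouse IgG, streptavidin-XL665), 665/620 nm ratio, normalised to no-inhibitor and no-enzyme controls.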
On the technique in general: TR-FRET usually uses a lanthanide donor and a delayed reading to cut background.

Assay [1] addresses T2, catalytic domain of human Bub1 (amino acids 704-1085) (Homo sapiens, UniProt O43683).
T2 construct: catalytic domain of human Bub1 (amino acids 704-1085); His6 (N); made in house; host or cells: insect cells (Hi5)
The experiment in a line: Bub1 kinase assay (TR-FRET). It is filed as biochemical. Conditions: 10 μM ATP, avg, read-out: Bub1 avg (IC50 [mol/l]). The gist of the method:
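Readout is the 665/620 nm TR-FRET ratio from anti-phosphoserine antibody, Eu-labelled anti-mouse IgG and streptavidin-XL665, scaled between no-enzyme and uninhibited controls. Reaction: 1 μM biotinylated peptide, 10 μM ATP, 60 min, 22 °C, after 15 min compound preincubation with His6-Bub1 (704-1085, insect-expressed, ~200 ng/ml).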

Structures are written as SMILES. pIC50: −log10 of the molar value. Values joined by “and” are separate entries in the source; they are usually repeats but may differ in a detail not shown here. Equal entries are not always repeated.

T2 sequence (O43683 704-1085): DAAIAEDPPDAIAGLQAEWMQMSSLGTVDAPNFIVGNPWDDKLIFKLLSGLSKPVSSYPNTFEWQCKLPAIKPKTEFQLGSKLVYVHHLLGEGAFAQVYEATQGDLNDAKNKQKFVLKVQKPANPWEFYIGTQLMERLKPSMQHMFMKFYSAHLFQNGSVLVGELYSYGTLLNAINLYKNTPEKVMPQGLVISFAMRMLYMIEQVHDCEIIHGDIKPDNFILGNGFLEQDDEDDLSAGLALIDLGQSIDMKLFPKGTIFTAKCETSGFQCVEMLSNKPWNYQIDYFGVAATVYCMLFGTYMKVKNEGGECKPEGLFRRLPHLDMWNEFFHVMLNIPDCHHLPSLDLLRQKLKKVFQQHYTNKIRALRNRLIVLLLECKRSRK

For `Cc1nsc(Nc2cnc3ccccc3n2)c1C(=O)Nc1cccc(NC(=O)OC(C)(C)C)c1` [Example 178, tert-butyl [3-({[3-methyl-5-(quinoxalin-2-ylamino)-1,2-thiazol-4-yl]carbonyl}amino)-phenyl]carbamate], the pIC50 (at CDK2/CycE; in assay [1]) was below 4.70 in each case.

Regarding `COC(=O)c1cc(NC(=O)c2c(C)nsc2Nc2cnc3ccccc3n2)cc(C(=O)OC)c1` [Example 237, dimethyl 5-({[3-methyl-5-(quinoxalin-2-ylamino)-1,2-thiazol-4-yl]carbonyl}amino)isophthalate], the pIC50 (on CDK2/CycE; in assay [1]) was below 4.70 each time.

As for `Cc1nsc(Nc2cnc(C(F)(F)F)cn2)c1C(=O)Nc1ccc(OC2CCN(C(=O)OC(C)(C)C)CC2)c(F)c1` [Example 217, tert-butyl 4-(2-fluoro-4-{[(3-methyl-5-{[5-(trifluoromethyl)pyrazin-2-yl]amino}-1,2-thiazol-4-yl)carbonyl]amino}phenoxy)piperidine-1-carboxylate], the pIC50 (at CDK2/CycE; in assay [1]) was below 4.70 in each case.

Regarding `Cc1nsc(Nc2cncc(C(F)(F)F)n2)c1C(=O)Nc1ccc(OCCNC(=O)OC(C)(C)C)c(F)c1` [Example 216, tert-butyl [2-(2-fluoro-4-{[(3-methyl-5-{[6-(trifluoromethyl)pyrazin-2-yl]amino}-1,2-thiazol-4-yl)carbonyl]amino}phenoxy)ethyl]carbamate], the pIC50 (on CDK2/CycE; in assay [1]) was below 4.70 each time.

For `Cc1nsc(Nc2cncc(C(F)(F)F)n2)c1C(=O)Nc1ccc(OC2CCN(CCF)CC2)nc1` [Example 14, N-(6-{[1-(2-Fluoroethyl)piperidin-4-yl]oxy}pyridin-3-yl)-3-methyl-5-{[6-(trifluoro-methyl)pyrazin-2-yl]amino}-1,2-thiazole-4-carboxamide], the pIC50 is 4.89 at CDK2/CycE and at most 4.70 in assay [1].

On to `Cc1nsc(Nc2cnc3ccccc3n2)c1C(=O)Nc1ccc(F)c(C(N)=O)c1` [Example 202, N-(3-carbamoyl-4-fluorophenyl)-3-methyl-5-(quinoxalin-2-ylamino)-1,2-thiazole-4-carboxamide], for which the pIC50 (on CDK2/CycE; in assay [1]) was below 4.70 each time.

Consider `Cc1nsc(Nc2cc(C#N)ccn2)c1C(=O)Nc1ccc(Oc2cccc(C(F)(F)F)c2)nc1` [Example 230, 5-[(4-cyanopyridin-2-yl)amino]-3-methyl-N-{6-[3-(trifluoromethyl)phenoxy]pyridin-3-yl}-1,2-thiazole-4-carboxamide], for which the pIC50 (on CDK2/CycE; in assay [1]) was below 4.70 each time.

`Cc1nsc(Nc2cnc3ccccc3n2)c1C(=O)Nc1cccc(NC(=O)C(C)(C)C)c1` [Example 186, N-{3-[(2,2-dimethylpropanoyl)amino]phenyl}-3-methyl-5-(quinoxalin-2-ylamino)-1,2-thiazole-4-carboxamide]: the pIC50 (on CDK2/CycE; in assay [1]) was below 4.70 in each case.

In the case of `CCN(CC)CCNC(=O)c1cccc(NC(=O)c2c(C)nsc2Nc2cnccn2)c1` [Example 247, N-(3-{[2-(diethylamino)ethyl]carbamoyl}phenyl)-3-methyl-5-(pyrazin-2-ylamino)-1,2-thiazole-4-carboxamide], the pIC50 (at CDK2/CycE; in assay [1]) was below 4.70 each time.

Consider `Cc1nsc(Nc2ccc(C#N)cn2)c1C(=O)Nc1ccc(S(C)(=O)=O)cc1` [Example 246, 5-[(5-cyanopyridin-2-yl)amino]-3-methyl-N-[4-(methylsulfonyl)phenyl]-1,2-thiazole-4-carboxamide], for which the pIC50 (at CDK2/CycE; in assay [1]) was below 4.70 each time.

`Cc1nsc(Nc2ccc(C#N)cn2)c1C(=O)Nc1ccc(F)c(C(N)=O)c1` [Example 203, N-(3-carbamoyl-4-fluorophenyl)-5-[(5-cyanopyridin-2-yl)amino]-3-methyl-1,2-thiazole-4-carboxamide]: the pIC50 (on CDK2/CycE; in assay [1]) was below 4.70 each time.

Turning to `COc1ccc(NC(=O)c2c(C)nsc2Nc2cnc3ccccc3n2)c(CC#N)n1` [Example 235, N-[2-(cyanomethyl)-6-methoxypyridin-3-yl]-3-methyl-5-(quinoxalin-2-ylamino)-1,2-thiazole-4-carboxamide], the pIC50 (on CDK2/CycE; in assay [1]) was below 4.70 in each case.

Take `Cc1nsc(Nc2cnc3ccccc3n2)c1C(=O)Nc1ccc(Oc2cccnc2)nc1` [Example 231, 3-methyl-N-[6-(pyridin-3-yloxy)pyridin-3-yl]-5-(quinoxalin-2-ylamino)-1,2-thiazole-4-carboxamide]: the pIC50 (on CDK2/CycE; in assay [1]) was below 4.70 in each case.

With `Cc1nsc(Nc2cncc(C(F)(F)F)n2)c1C(=O)Nc1cccc(S(C)(=O)=O)c1` [Example 194, 3-methyl-N-[3-(methylsulfonyl)phenyl]-5-{[6-(trifluoromethyl)pyrazin-2-yl]amino}-1,2-thiazole-4-carboxamide], the pIC50 on CDK2/CycE is < 4.70 and 5.11; in assay [1], < 4.70 and 4.96 and 4.72.

Consider `Cc1nsc(Nc2cncc(C(F)(F)F)n2)c1C(=O)Nc1ccc(C(=O)NC2CCN(C(=O)OC(C)(C)C)CC2)cc1` [Example 222, tert-butyl 4-[(4-{[(3-methyl-5-{[6-(trifluoromethyl)pyrazin-2-yl]amino}-1,2-thiazol-4-yl)carbonyl]amino}benzoyl)amino] piperidine-1-carboxylate], for which the pIC50 (at CDK2/CycE; in assay [1]) was below 4.70 each time.

Regarding `Cc1nsc(Nc2cnc3ccccc3n2)c1C(=O)Nc1ccc(NCCNC(=O)OC(C)(C)C)nc1` [Example 244, tert-butyl (2-{[5-({[3-methyl-5-(quinoxalin-2-ylamino)-1,2-thiazol-4-yl]carbonyl}amino)pyridin-2-yl]amino}ethyl)carbamate], the pIC50 (at CDK2/CycE; in assay [1]) was below 4.70 each time.

Take `CNC(=O)c1ccc(NC(=O)c2c(C)nsc2Nc2ccc(C#N)cn2)cc1F` [Example 208, 5-[(5-cyanopyridin-2-yl)amino]-N-[3-fluoro-4-(methylcarbamoyl)phenyl]-3-methyl-1,2-thiazole-4-carboxamide]: the pIC50 (at CDK2/CycE; in assay [1]) was below 4.70 in each case.

Consider `Cc1nsc(Nc2cncc(C(F)(F)F)n2)c1C(=O)Nc1ccc(OCCN)nc1` [Example 196, N-[6-(2-aminoethoxy)pyridin-3-yl]-3-methyl-5-{[6-(trifluoromethyl)pyrazin-2-yl]amino}-1,2-thiazole-4-carboxamide], for which the pIC50 (at CDK2/CycE; in assay [1]) was below 4.70 throughout.

Turning to `Cc1nsc(Nc2cnc3ccccc3n2)c1C(=O)Nc1ccc(NCC2CCN(C(=O)OC(C)(C)C)CC2)nc1` [Example 238, tert-butyl 4-({[5-({[3-methyl-5-(quinoxalin-2-ylamino)-1,2-thiazol-4-yl]carbonyl}amino)pyridin-2-yl]amino}methyl)piperidine-1-carboxylate], the pIC50 (at CDK2/CycE; in assay [1]) was below 4.70 throughout.

Consider `Cc1nsc(Nc2cncc(C(F)(F)F)n2)c1C(=O)Nc1ccc(OC2CCN(CC(F)(F)F)CC2)nc1` [Example 16, 3-Methyl-N-(6-{[1-(2,2,2-trifluoroethyl)piperidin-4-yl]oxy}pyridin-3-yl)-5-{[6-(trifluoromethyl)pyrazin-2-yl]amino}-1,2-thiazole-4-carboxamide], for which the pIC50 (at CDK2/CycE; in assay [1]) was at most 4.70 in each case.

For the compound `Cc1nsc(Nc2cnc3ccccc3n2)c1C(=O)Nc1ccc(OCCC(=O)OC(C)(C)C)nc1` [Example 198, tert-butyl 3-{[5-({[3-methyl-5-(quinoxalin-2-ylamino)-1,2-thiazol-4-yl]carbonyl}amino)pyridin-2-yl]oxy}propanoate], the pIC50 (on CDK2/CycE; in assay [1]) was below 4.70 in each case.

For `CCN(CC)CCNC(=O)c1cccc(NC(=O)c2c(C)nsc2Nc2cc(C#N)ccn2)c1` [Example 174, 5-[(4-cyanopyridin-2-yl)amino]-N-(3-{[2-(diethylamino)ethyl]carbamoyl}phenyl)-3-methyl-1,2-thiazole-4-carboxamide], the pIC50 (on CDK2/CycE; in assay [1]) was below 4.70 each time.

On to `Cc1nsc(Nc2ccc(C#N)cn2)c1C(=O)Nc1ccc(OCCC(=O)OC(C)(C)C)nc1` [Example 199, tert-butyl 3-({5-[({5-[(5-cyanopyridin-2-yl)amino]-3-methyl-1,2-thiazol-4-yl}carbonyl)amino]pyridin-2-yl}oxy)propanoate], for which the pIC50 (at CDK2/CycE; in assay [1]) was below 4.70 each time.

For `Cc1nsc(Nc2cnc3ccccc3n2)c1C(=O)Nc1ccc(NC2CCCN(C(=O)OC(C)(C)C)C2)nc1` (stereo not shown) [Example 241, tert-butyl 3-{[5-({[3-methyl-5-(quinoxalin-2-ylamino)-1,2-thiazol-4-yl]carbonyl}amino)pyridin-2-yl]amino}piperidine-1-carboxylate], the pIC50 (on CDK2/CycE; in assay [1]) was below 4.70 each time.

For `Cc1nsc(Nc2cnc(C(F)(F)F)cn2)c1C(=O)Nc1ccc(C(=O)NCCN2CCCC(F)C2)cc1` (stereo not shown) [Example 213, N-(4-{[2-(3-fluoropiperidin-1-yl)ethyl]carbamoyl}phenyl)-3-methyl-5-{[5-(trifluoromethyl)pyrazin-2-yl]amino}-1,2-thiazole-4-carboxamide], the results for the pIC50 (at CDK2/CycE; in assay [1]) were below 4.70 and 4.77, respectively.

Consider `CC(=O)N1CCC(Oc2ccc(NC(=O)c3c(C)nsc3Nc3cncc(C(F)(F)F)n3)cn2)CC1` [Example 17, N-{6-[(1-Acetylpiperidin-4-yl)oxy]pyridin-3-yl}-3-methyl-5-{[6-(trifluoromethyl)-pyrazin-2-yl]amino}-1,2-thiazole-4-carboxamide], for which the pIC50 (on CDK2/CycE; in assay [1]) was at most 4.70 in each case.
